# Reference: patent publication US10682362B2, “Treatments and diagnostics for cancers” (Wayne State University, priority 2015, dated 2020)
# Where two headings read alike, the source gives them in different places. Where a SMILES comes first, the peptide text is derived from it. The star is where a group is joined. Cbz = O=C(OCc1ccccc1)*
# Legend:
# [1] = tested on: AR-V7 protein; details: 22Rv1 cells, 20 μM Gal; 40 μM calpeptin or PD 66 h; 50 μM ALLM or pan-caspase inhibitor up to 72 h
# Text: Western blotting with anti-N20/AR antibody to examine levels of AR and AR-V7 proteins in various prostate cancer cell lines. […] This was followed by Western blotting with specific AR-V7 antibody, with Actin as a loading control.
# Western blotting. (a, b) AR-V7 and AR protein levels determined by AR-V7 specific antibody and N20 antibody, respectively. (c) PARP/p89 is a caspase-3 cleavage fragment while PARP/p65 is a calpain cleavage product. (d) Caspase-3 cleavage fragment of Spectrin α2/p120, and a 150 fragment by either caspase-3 or calpain cleavage. (e) Autolysis of calpain small subunit (Cal Sm) to p28 fragment. (f) Calpain cleavage fragment of Calpastatin/p70. […] Caspase-3 activity assay.
# In C, (a) Cell lysates were derivatized with 2,4-dinitrophenylhydrazine (DNPH), followed by Western blotting to determine the levels of oxidized proteins (Oxi-P). Actin was used a load control (b). AR-V7 levels were determined by AR-V7 specific antibody (c). PARP/p89 is caspase-3 cleavage fragment while PARP/p65 is calpain cleavage product (d). (e) Autolysis of calpain small subunit (Cal Sm) to p28 fragment. (f) Actin, loading control.
# [2] = tested on: 22Rv1 cells; test: morphological changes and crystal violet staining of 22Rv1 cells; assay type: cell-based; details: bortezomib 2.5 or 5 nM, Gal 20 μM, 24 h and 48 h
# Text: In 12C, cells were fixed with formalin, and then stained with violet overnight.
# [3] = target: T1, proteasome (Homo sapiens, UniProt P28072+P28074+Q99436); test: cellular proteasomal CT-like, PGPH-like and T-like activities in 22Rv1 cells; assay type: cell-based; set-up: endogenous in cells; host or cells: 22Rv1; details: for inhibition at 20 µM: 22Rv1, 22Rv1 cells, 20 μM Gal
# T1 sequence (P28074 60-263): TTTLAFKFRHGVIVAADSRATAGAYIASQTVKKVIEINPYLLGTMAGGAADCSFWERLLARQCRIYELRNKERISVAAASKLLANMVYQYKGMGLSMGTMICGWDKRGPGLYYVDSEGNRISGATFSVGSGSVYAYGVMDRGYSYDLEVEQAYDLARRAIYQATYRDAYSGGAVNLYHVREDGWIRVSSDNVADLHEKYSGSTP
# T1 sequence (P28072 1-239): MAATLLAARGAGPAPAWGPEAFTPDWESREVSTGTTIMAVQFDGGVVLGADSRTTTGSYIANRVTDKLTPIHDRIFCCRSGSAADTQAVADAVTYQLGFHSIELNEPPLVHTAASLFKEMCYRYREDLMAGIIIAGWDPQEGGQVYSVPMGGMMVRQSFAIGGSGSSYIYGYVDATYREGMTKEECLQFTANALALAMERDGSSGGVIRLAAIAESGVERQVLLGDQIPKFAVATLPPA
# T1 sequence (Q99436 44-277): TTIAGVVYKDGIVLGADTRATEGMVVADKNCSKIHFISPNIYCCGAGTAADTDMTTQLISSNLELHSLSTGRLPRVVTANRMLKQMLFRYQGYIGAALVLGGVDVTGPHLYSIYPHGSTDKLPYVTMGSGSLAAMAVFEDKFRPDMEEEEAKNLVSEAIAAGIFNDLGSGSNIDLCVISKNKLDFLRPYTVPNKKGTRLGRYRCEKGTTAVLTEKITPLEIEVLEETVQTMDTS
# Text: (§1) FIGS. 11A-11D. […] Actin was used a load control (b). […] (f) Actin, loading control.
# [4] = tested on: metastatic CRPC; details: cited from earlier work
# [5] = tested on: full length AR (AR-FL) protein; test: Western blotting of full length AR (anti-AR N20) in 22Rv1 cells; assay type: cell-based
# [6] = tested on: caspase-3; test: Caspase-3 activity assay in 22Rv1 cells; assay type: cell-based; details: 20 μM Gal
# [7] = tested on: calpain; test: calpain activation by cleavage fragments (Western blotting) in 22Rv1 cells; assay type: cell-based; details: 20 μM Gal, same time points as p28 (48 to 72 h)
# [8] = target: purified 20S proteasome (Homo sapiens, UniProt P28072+P28074+Q99436); test: proteasome activities of purified 20S proteasome; assay type: biochemical; details: 15 min
# Procedure: (§2) FIGS. 10A-10E. […] Purified 20S proteasome was used a control; BG, background (10D).
# (§3) Then deubiquitinase (DUBs) activity associated with the 19S proteasome was determined by using the purified 26S proteasome.
# [9] = target: purified 26S proteasome (Homo sapiens, UniProt P28072+P28074+Q99436); test: proteasome activities of purified 26S proteasome; assay type: biochemical; details: 15 min
# Procedure: as §2, §3
# [10] = tested on: proteasome; test: proteasome CT-like activity in protein extract of 22Rv1 cells; assay type: biochemical; details: high concentrations (50 or 100 μM)
# [11] = tested on: 19S proteasome-associated DUB; test: DUBs activity of purified 26S proteasome (Ub-AMC substrate); assay type: biochemical
# Procedure: as §2, §3
# [12] = tested on: DUBs; test: DUB activity in 22Rv1 cells; assay type: cell-based; details: 20 μM Gal
# Procedure: as §1
# (§4) Sustained DUBs inhibition was detected for up to 48 h (FIG. 11A). […] AR-V7 protein level remained subtle changes up to 56 h and decreased after 64-68 h, and completely depleted after 72 h (FIG. 11C, c). […] Consistently, caspase-3-specific cleavage fragments, 89 kD fragment of PARP (PARP/p89) were also detected between 48 and 72 h (FIG. 11C, d). Calpain activation is associated with self-autolysis of its small subunit. […] This finding has important clinical significance.
# [13] = tested on: oxidized proteins (Oxi-P); test: oxidized proteins (DNPH derivatization, Western blotting) in 22Rv1 cells; assay type: cell-based; details: 20 μM Gal
# Procedure: as §1, §4
# [14] = tested on: 22Rv1 cells; test: cell proliferation by MTT in 22Rv1 cells; assay type: cell-based; details: Gal alone, 24 h
# [15] = tested on: BTZ-resistant MM 8826 cells; test: cell proliferation by MTS in BTZ-resistant MM cells; assay type: cell-based; details: Gal alone at 10 or 20 μM, 24 h
# Procedure: FIGS. 13A-C. […] Cell proliferation was determined by MTS. […] Cell death was determined by detection of PARP cleavage. […] Actin was used as loading control.
# 8826-7BR is a multiple myeloma cell line developed resistance to bortezomib. […] This finding has high translational potential to clinics.
# [16] = tested on: CRPC with C-terminal AR loss; details: Phase 2 ARMOR2; cited from earlier work
# [17] = target: T1, proteasome; test: cellular proteasomal activities in VCaP cells; assay type: cell-based; set-up: endogenous in cells; details: 5-20 μM Gal, 72 h
# Text: Therefore, Gal-induced proteasome inhibition occurs prior to activation of calpain/caspases and loss of AR-V7 protein (FIGS. 4 vs. 2).
# [18] = tested on: proteasome; details: cited from earlier work
# [19] = tested on: calpain; details: cited from earlier work
# [20] = tested on: AR-V7; details: 5 μM of MG132; cited from earlier work
# [21] = tested on: metastatic CRPC; details: phase III clinical trials; versus 10.9 months placebo; cited from earlier work
# [22] = tested on: AR-V7 protein; test: Western blotting of AR-V7 in nuclear and cytosolic fractions of 22Rv1 cells; assay type: cell-based; details: for rescue of Gal-induced nuclear AR-V7 loss: androgen-starved 22Rv1 cells, 20 μM Gal plus 40 μM calpeptin or 20 μM Z-VAD
# Text: Nuclear fractions were isolated and separated by Western blotting to determine AR-V7 levels. Actin was used as a loading control.
compound,measurement,setting,value
"CSCC[C@@H](C=O)NC(=O)[C@H](CC(C)C)NC(=O)[C@H](CC(C)C)NC(C)=O [ALLM, N-acetyl-L-leucyl-L-leucyl-L-methioninal] (Ac-Leu-Leu-Met-aldehyde)",rescue of Gal-induced AR-V7 loss by inhibitor,[1],rescue AR-V7 loss partially
CC(C)C[C@H](NC(=O)[C@H](Cc1ccccc1)NC(=O)c1cnccn1)B(O)O [BTZ],morphological changes / cell death,[2],did not cause apparent morphological changes
same,proteasomal CT-like activity,"[3]; 22Rv1 cells, BTZ alone, 48 h",caused proteasomal CT-like inhibition
same,proteasomal chymotrypsin (CT)-like activity,"[3]; 22Rv1 cells, BTZ alone, 72 h",dose-dependent inhibition
CNC(=O)c1ccc(N2C(=S)N(c3ccc(C#N)c(C(F)(F)F)c3)C(=O)C2(C)C)cc1F [Enzalutamide],patients with PSA level decreased more than 50%,[4]; chemo-naive patients,40/65
same,patients with PSA level decreased more than 50%,[4]; chemotherapy-treated patients,38/75
same,lived longer than those taking placebo,[4]; interim analysis,approximately 5 months
"C[C@]12CC[C@H](O)CC1=CC[C@@H]1[C@@H]2CC[C@]2(C)C(n3cnc4ccccc43)=CC[C@@H]12 [Gal, (3S,8R,9S,10R,13S,14S)-17-(benzimidazol-1-yl)-10,13-dimethyl-2,3,4,7,8,9,11,12,14,15-decahydro-1H-cyclopenta[a]phenanthren-3-ol]",time after which full length AR (AR-FL) protein decreased,[5]; 20 μM Gal for up to 72 h,≥ 48 h
same,AR-FL protein expression in cytosolic and nuclear fractions,"[5]; 20 μM Gal, anti-AR N20 antibody",a decrease in both cytosolic and nuclear AR-FL protein expression
same,time after which caspase-3 activity increased,[6],≥ 24 h
same,time at which caspase-3 activity reached the highest,[6],48 h
same,caspase-3 activation,[6]; after 48 h,5 fold
same,calpain cleavage product Calpastatin/p70,[7],detected at the same time points
same,"three proteasomal activities (CT, PGPH and T-like)",[8],unable to block all the three proteasomal activities
same,"three proteasomal activities (CT, PGPH and T-like)",[9],unable to block all the three proteasomal activities
same,CT-like activity of the proteasome,[10],could inhibit the CT-like activity
same,DUBs activity of purified 26S proteasome,"[11]; Gal 20 μM, 15 min",suppressed
same,DUBs activity of purified 26S proteasome,[11]; Gal at a low dose (10 μM),could efficiently inhibit DUBs activity
same,earliest time of DUBs inhibition,[12],≤ 2 h
same,sustained DUBs inhibition detected up to,[12],up to 48 h
same,sustained accumulation of oxidized proteins detected up to,[13],up to 72 h
same,time before which oxidized proteins accumulated,[13],< 2 h
same,cell proliferation (MTT),[14],did not inhibit cell proliferation
same,morphological changes / cell death,[2],did not cause apparent morphological changes
same,sensitivity of BTZ-resistant MM cells (MTS),[15],sensitive to Gal treatment alone
same,response of Abi- and Enz refractory CRPC patients with C-terminal AR loss,[16],remain responsive
same,three proteasomal activities,[17],dose-dependent inhibition
same,inhibition at 20 µM,[3]; after 64 h,> 50%
same,inhibition at 20 µM,[3]; at 48 h,30%
same,inhibition at 20 µM,[3]; between 2-24 h,10%
same,"proteasomal CT-like activities, time course","[3]; 22Rv1 cells, 20 μM Gal up to 72 h","inhibited in a time-dependent fashion, but later than DUBs inhibition"
same,proteasomal CT-like activity,"[3]; 22Rv1 cells, 5-20 μM Gal, 24 h",dose-dependent decrease
same,proteasomal PGPH-like activity,"[3]; 22Rv1 cells, 5-20 μM Gal, 24 h",dose-dependent decrease
same,proteasomal trypsin (T)-like activity,"[3]; 22Rv1 cells, 5-20 μM Gal, 24 h",but not trypsin (T)-like activities
same,all three proteasomal activities,"[3]; 22Rv1 cells, 5-20 μM Gal, 48 h",decreased in a Gal dose-dependent fashion
CC(C)C[C@@H](C=O)NC(=O)[C@H](CC(C)C)NC(=O)[C@H](CC(C)C)NC(=O)OCc1ccccc1 [MG132] (Cbz-Leu-Leu-Leu-aldehyde),IC50,[18],0.1 µM
same,IC50,[19],1.2 µM
same,inhibition of Gal-induced AR-V7 degradation,[20],could be inhibited
O=C(O)/C(S)=C/c1ccc(I)cc1 [PD150606],rescue of Gal-induced AR-V7 loss by inhibitor,[1],rescue AR-V7 loss partially
CC(=O)O[C@H]1CC[C@@]2(C)C(=CC[C@@H]3[C@@H]2CC[C@]2(C)C(c4cccnc4)=CC[C@@H]32)C1 [abiraterone acetate],median survival,[21],14.8 months
"CCCC[C@@H](C=O)NC(=O)[C@H](CC(C)C)NC(=O)OCc1ccccc1 [calpeptin, Z-Leu-Nle-CHO]",block of Gal-induced nuclear AR-V7 depletion,"[22]; 22Rv1 cells, 20 μM Gal plus 40 μM calpeptin, 56 h and 72 h",could be blocked
same,rescue of Gal-induced nuclear AR-V7 loss,[22],partially rescued AR-V7 loss by Gal
same,rescue of Gal-induced AR-V7 loss by inhibitor,[1],rescue AR-V7 loss partially
Z-VAD,rescue of Gal-induced nuclear AR-V7 loss,[22],able to block the Gal-induced AR-V7 depletion
